According to US20240228543A1, “CYCLIC PEPTIDE INHIBITORS OF USP22” (THE JOHNS HOPKINS UNIVERSITY, priority 2021, published 2024):
“And” between values parts separate entries of the source, which are not always exact repeats. Equal values may be shown once. Positions of bridges follow the written chain, without caps; N, C: chain ends. Non-standard residues stand in square brackets, D forms with d. Residues, ends and D or L forms follow the SMILES beside them.

Experiments:
[1] = molecular target: T1, human DUB module (hDUBm; USP22, ATXN7, ATXN7L3, ENY2) (Homo sapiens, UniProt Q9UPT9); experiment: Ub-AMC deubiquitination assay, human DUB module; format: biochemical; settings: Ki (apparent, Morrison approximation), Ub-AMC cleavage, 200 nM DUB, 1 μM Ub-AMC
T1 construct: 6xHis (TEV-cleavable) (N, cleaved yes); made in house; host or cells: High Five insect cells (baculovirus, Bac2Bac; virus amplified in Sf9)
T1 sequence (Q9UPT9 whole entry): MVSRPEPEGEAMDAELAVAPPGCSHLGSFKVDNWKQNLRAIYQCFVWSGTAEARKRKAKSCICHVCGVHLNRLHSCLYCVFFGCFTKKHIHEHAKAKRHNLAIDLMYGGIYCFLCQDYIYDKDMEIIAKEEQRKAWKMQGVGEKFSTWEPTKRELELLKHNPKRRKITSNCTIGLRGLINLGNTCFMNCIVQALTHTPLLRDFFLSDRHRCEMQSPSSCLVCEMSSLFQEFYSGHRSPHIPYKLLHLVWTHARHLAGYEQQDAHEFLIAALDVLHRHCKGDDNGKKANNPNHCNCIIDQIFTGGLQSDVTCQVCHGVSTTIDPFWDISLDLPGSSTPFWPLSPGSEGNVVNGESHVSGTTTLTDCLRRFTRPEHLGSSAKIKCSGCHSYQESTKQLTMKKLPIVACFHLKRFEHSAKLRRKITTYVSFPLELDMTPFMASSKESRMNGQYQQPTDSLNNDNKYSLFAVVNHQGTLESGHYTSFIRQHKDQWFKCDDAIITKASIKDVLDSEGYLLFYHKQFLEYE
T1 sequence (O15265 3-151 partner limits assumed): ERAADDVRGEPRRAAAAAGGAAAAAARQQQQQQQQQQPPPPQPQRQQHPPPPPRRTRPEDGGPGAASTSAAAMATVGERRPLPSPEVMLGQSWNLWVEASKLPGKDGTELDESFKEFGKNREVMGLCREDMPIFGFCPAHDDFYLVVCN
T1 sequence (Q14CW9 whole entry partner): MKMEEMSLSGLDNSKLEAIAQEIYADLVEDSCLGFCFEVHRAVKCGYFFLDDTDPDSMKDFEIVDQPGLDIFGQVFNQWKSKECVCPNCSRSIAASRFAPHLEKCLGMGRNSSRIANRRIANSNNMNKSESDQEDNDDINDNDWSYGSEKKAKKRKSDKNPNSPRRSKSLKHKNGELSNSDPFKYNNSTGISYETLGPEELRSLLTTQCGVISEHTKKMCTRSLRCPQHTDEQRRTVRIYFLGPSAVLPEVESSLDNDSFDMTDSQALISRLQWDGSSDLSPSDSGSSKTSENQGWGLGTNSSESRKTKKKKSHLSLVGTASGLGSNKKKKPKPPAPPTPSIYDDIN
T1 sequence (Q9NPA8 whole entry partner): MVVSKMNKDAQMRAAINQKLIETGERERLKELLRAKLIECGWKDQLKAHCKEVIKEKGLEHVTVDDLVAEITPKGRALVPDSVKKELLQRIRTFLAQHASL
Description: FIG. 2A is a graph of initial rates of Ub-AMC cleavage by hDUB module as a function of substrate concentration. […] FIGS. 2B-2G are graphs of each cyclic peptide, as indicated, tested for its ability to inhibit Ub-AMC cleavage in the presence of increasing amounts of the peptide into a reaction with a fixed amount of DUB (200 nM) and Ub-AMC (1 μM). Ki values were determined for each curve using the Morrison Ki approximation.
Ub-AMC deubiquitination assay A working stock mixture of either yDUBm or hDUBm was prepared in the presence of either DMSO (mock) or a dilution series of the cyclic peptide. […] Each enzyme:peptide mixture was incubated for 30 min at 30° C. in the case of yDUBm, and 37° C. in the case of hDUBm, with each enzyme complex at 1.033× the desired concentration (207 nM). The enzyme:peptide mixture ([…]) was added to 1 μL of 30 μM U b-AMC (7-amino-4-methylcoumarin) (Boston Biochem), for a final concentration of 200 nM DUBm, the indicated cyclic peptide concentration, and 1 μM Ub-AMC. DUB activity was measured by observing the increase in AMC fluorescence in a plate reader, and the initial rate of fluorescence increase was calculated and plotted as a function of inhibitor concentration (FIGS. 2B-2I). The Ki values were determined using the Morrison approximation of enzyme inhibition equilibria within Prism (Graphpad).
The cyclic peptides that constituted potential inhibitors were chemically synthesized by solid phase peptide synthesis and tested for their effectiveness and specificity as inhibitors in vitro. Since the enzyme kinetics of the human DUB module had not previously been characterized, hDUBm activity was assayed using the fluorogenic substrate, ubiquitin-amino methyl coumarin (Ub-AMC) (FIG. 2A).

[2] = molecular target: USP22/ATXN7L3/ENY2/ATXN7 (hDUBm) (Homo sapiens, UniProt Q9UPT9); experiment: biochemical
Sequence of USP22/ATXN7L3/ENY2/ATXN7 (hDUBm) (Q9UPT9 whole entry): as the sequence (Q9UPT9 whole entry) above
Sequence of USP22/ATXN7L3/ENY2/ATXN7 (hDUBm) (O15265 3-151 partner limits assumed): as the sequence (O15265 3-151 partner limits assumed) above
Sequence of USP22/ATXN7L3/ENY2/ATXN7 (hDUBm) (Q14CW9 whole entry partner): as the sequence (Q14CW9 whole entry partner) above
Sequence of USP22/ATXN7L3/ENY2/ATXN7 (hDUBm) (Q9NPA8 whole entry partner): as the sequence (Q9NPA8 whole entry partner) above
Description: Cleavage rates of 5 μM Ub-AMC were assayed for 75 nM USP22/ATXN7L3/ENY2/ATXN7 (hDUBm), 100 nM USP27x/ATXN7L3/ENY2, or 1000 nM USP51/ATXN7L3/ENY2. Rates were normalized to the uninhibited reaction in each case to determine the fraction of apparent activity.
DUB specificity assays Ubiquitin-rhodamine(110)-glycine cleavage rates were measured for all DUBs available in the DUBprofiler™ panel with two independent replicates (44 in total; Ubiquigent). […] USP22 was not included in the panel, and is not represented in FIG. 12A. […] Initial cleavage rates of each complex were measured on a fixed concentration of 5 μM Ub-AMC.
Heterotrimeric complexes containing USP27x and USP51 were purified, respectively, in complex with ENY2 and ATXN7L3. The activity of these complexes on Ub-AMC was compared to that of the human DUBm, which contains USP22, ENY2, ATXN7L3, and a fourth subunit, ATXN7, that anchors the DUBm to the rest of the SAGA complex.

USP27x = molecular target: T2, USP27x (Homo sapiens, UniProt A6NNY8); experiment: DUBprofiler panel, USP27x alone; format: biochemical; settings: 1 μM hD1, USP27x alone without other subunits
T2 construct: purchased Ubiquigent (DUBprofiler panel)
T2 sequence (A6NNY8 1-438): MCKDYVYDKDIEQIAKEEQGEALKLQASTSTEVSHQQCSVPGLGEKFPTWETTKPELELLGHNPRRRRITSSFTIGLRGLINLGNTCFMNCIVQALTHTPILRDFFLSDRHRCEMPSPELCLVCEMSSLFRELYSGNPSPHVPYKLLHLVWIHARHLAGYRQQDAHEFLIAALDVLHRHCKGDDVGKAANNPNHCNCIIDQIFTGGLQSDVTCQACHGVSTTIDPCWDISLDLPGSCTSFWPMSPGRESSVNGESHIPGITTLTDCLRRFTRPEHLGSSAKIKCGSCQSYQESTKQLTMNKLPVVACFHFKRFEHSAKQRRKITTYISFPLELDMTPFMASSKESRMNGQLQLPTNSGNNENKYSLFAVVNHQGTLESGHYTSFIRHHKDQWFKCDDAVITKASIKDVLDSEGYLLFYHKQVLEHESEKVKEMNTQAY
Description: The human genome encodes about 80 active DUBs, 55 of which belong to the same USP structural family as USP22, thus presenting a challenge to the development of specific DUB inhibitors. […] The activity of each DUB was tested in the presence of a single concentration of inhibitor and compared with enzyme activity in the absence of compound. […] In this screen, however, USP27x alone was tested in the absence of other subunits.

USP30 = molecular target: T3, USP30 (Homo sapiens, UniProt Q70CQ3); experiment: End-point Ub-AMC cleavage by off-target DUB USP30; format: biochemical; settings: 1 μM hD1, 200 nM USP30, 1 μM Ub-AMC
T3 sequence (Q70CQ3 1-517): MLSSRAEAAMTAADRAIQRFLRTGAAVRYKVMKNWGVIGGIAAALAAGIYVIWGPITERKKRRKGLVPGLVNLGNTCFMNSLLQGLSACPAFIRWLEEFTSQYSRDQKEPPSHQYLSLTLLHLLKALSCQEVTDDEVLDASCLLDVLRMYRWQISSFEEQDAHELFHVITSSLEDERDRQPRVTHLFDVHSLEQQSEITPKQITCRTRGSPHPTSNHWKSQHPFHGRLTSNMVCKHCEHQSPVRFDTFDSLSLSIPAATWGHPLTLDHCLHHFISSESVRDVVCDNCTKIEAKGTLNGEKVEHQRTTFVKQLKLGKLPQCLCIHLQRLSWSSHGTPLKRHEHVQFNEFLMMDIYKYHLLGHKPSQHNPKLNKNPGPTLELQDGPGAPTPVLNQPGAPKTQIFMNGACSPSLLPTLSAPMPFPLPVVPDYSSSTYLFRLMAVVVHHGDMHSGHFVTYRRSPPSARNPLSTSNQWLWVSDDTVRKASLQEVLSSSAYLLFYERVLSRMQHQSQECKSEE
Source text: USP7 and USP30 are USP DUBs and belong to the same structural family as USP22, while CYLD belongs to the structurally distinct ubiquitin C-terminal hydrolase (UCH) family of DUBs. […]

## CC[C@H](C)[C@@H]1NC(=O)[C@H](C)NC(=O)[C@@H](Cc2ccc(O)cc2)NC(=O)CSC[C@@H](C(N)=O)NC(=O)[C@H](CC(C)C)NC(=O)[C@H](CC(C)C)NC(=O)[C@H]([C@@H](C)O)NC(=O)[C@H]([C@@H](C)O)NC(=O)[C@H](CCCCN)NC(=O)CNC(=O)[C@H](CCCNC(=N)N)NC(=O)[C@H](Cc2ccc(O)cc2)NC(=O)[C@H](CO)NC1=O [hD1] ({CH2CO}-[dY]AISYRGKTTLLC-NH2; thioether N-13)
[1]
  Ki: < 100 nM and 20.6 nM
[2]
  IC50: 100 nM
USP27x
  reduction of USP27x activity: ~50%
USP30
  effect on USP30 activity: ~15%
